Test results reported in patent US10561704B2, “Compositions and methods for treating neuropsychiatric disorders using an endothelin-B receptor agonist” (MIDWESTERN UNIVERSITY, priority 2013, dated 2020).
*1 amine or outer side, *2 acyl side, *3 side chain or, on linkers, in order; H or OH if unused. Where no end group is shown, it is not given here. Suc = O=C(CCC(=O)[*:2])[*:1]

Tests used:
postnatal rat brain = test: Immunofluorescent labeling of ETB receptors, VEGF and NGF in the postnatal rat brain after IRL-1620; format: in vivo, Sprague-Dawley rats; settings: IRL-1620 on postnatal day 21, brain at day 28, vs control
Method: Timed pregnant female Sprague-Dawley rats (Harlan, Indianapolis, Ind.) were caged singly in a room controlled for ambient temperature (23±1° C.), humidity (50±10%) and a 12 h light/dark cycle (6:00 am-6:00 pm). Food and water were available ad libitum. All animal care and use for procedures were approved by the Institutional Animal Care and Use Committee (IACUC) of Midwestern University. In order to avoid variation due to hormonal changes, male pups only were separated and utilized for this study. The pups were euthanized via decapitation on postnatal day 1, 7, 14 and 28. The brains were aseptically removed and processed for either immunofluorescent labeling or immunoblot analysis of ETB receptors, VEGF and NGF.
After 21 days of gestation, 70 male and 65 female pups were born to 10 pregnant female rats. 30 male pups were randomly selected for Study I, and divided into 4 groups as follows: Group 1=male pups euthanized on postnatal day 1 (N=10); Group 2=male pups euthanized on postnatal day 7 (N=10); Group 3=male pups euthanized on postnatal day 14 (N=5); Group 4=male pups euthanized on postnatal day 28 (N=5). An additional 20 male pups were randomly selected for Study II, and divided into 2 groups: Control (N=10) and IRL-1620-treated (N=10). Pups in Study II received 3 doses of either isotonic saline (1 ml/kg) or ETB receptor agonist IRL-1620 (5 μg/kg; American Peptide Co, Inc., Sunnyvale, Calif.) on postnatal day 21. The doses were given intravenously at 2 hour intervals. All pups were weighed and evaluated for developmental and behavioral characteristics at postnatal day 1, 7, 14 and 28. Developmental and behavioral characteristics included active vs. sluggish behavior, healthy vs. shedding fur, licking, grooming, aggressive behavior, defecation, urination and wet dog shakes.
Immunofluorescently labeled antibodies were used to determine the expression of ETB receptors, VEGF and NGF in the developing rat brain. Male rat pups were euthanized via decapitation, and the brains were removed at postnatal day 1, 7, 14 and 28. The brains were washed in isotonic saline and transferred to a 4% paraformaldehyde (PFA)/NaPO4 buffer solution for 2 hours to fix the tissue, followed by suspension in a 20% sucrose/4% PFA solution for 48 hours at 4° C. Brains were then sliced into 20 μm thick coronal sections at −30° C. using a cryostat (Microtome cryostat HM 505 E; Walldorf, Germany). Sections were processed for immunofluorescent staining as described by Loo, et al. (Loo et al., 2002), with minor modifications. […] Fluorescence was detected using an inverted fluorescent microscope (Nikon Eclipse TiE, Melville, N.Y.). […]

[1] = test system: middle cerebral artery occluded rats; settings: acute study, 24 hours (Leonard et al., 2011); cited from earlier work
normal rats = settings: intravenous; cited from earlier work

## Suc-Asp-Glu-Glu-Ala-Val-Tyr-Phe-Ala-His-Leu-Asp-Ile-Ile-Trp (Suc-DEEAVYFAHLDIIW) [IRL-1620]
Postnatal rat brain
  Intensity of ETB receptor staining in cerebral vasculature and cortex: significantly higher
  Intensity of NGF staining and number of NGF-positive cells, cortex or subventricular zones: did not alter
  Intensity of VEGF staining: further increase
  Number of VEGF-positive vessels: further increase
[1]
  Reduction of infarct volume: 83.66%
Normal rats
  Cerebral blood flow (CBF): significant elevation
